Assay results taken from patent US9987299B2, “Methods of improving RNAi in well-differentiated airway epithelia” (University of Iowa Research Foundation, priority 2014, dated 2018).

Legend:
Human CFTR mRNA = assay: CFTR mRNA silencing by CFTR DsiRNA-Transductin in well-differentiated HAE (RT-qPCR); type: cell-based; conditions: CFTR DsiRNA with simultaneous PAF treatment or spiperone pre-treatment
Experimental: FIG. 4. […] Alternatively, spiperone was applied apically and basolaterally to well-differentiated HAE for 6 hours, and then removed by rinsing before incubation for 4 hours with CFTR-targeting or NC1 DsiRNAs complexed with Transductin. In both cases, 24 hours after transfection, and RNA levels quantified by RT-qPCR. (b) A representative immunoblot from similarly treated wells, but cells were lysed and proteins visualized after immunoprecipitation with anti-CFTR antibody. Alpha-tubulin was used as a loading control. (c) Densitometry readings of immunoblots with results normalized to NC1 treated samples. In all cases, data are from 3 biological replicates and are mean±SD. ***p<0.001, **p<0.01 (Student's t-test).
For well-differentiated airway epithelia, transfection was performed mostly according to the manufacturer's protocol. […]
Total RNA was isolated using SV96 RNA isolation kit (Promega, Madison, Wis.), according to manufacturer's protocol. […] One-fifteenth of the cDNA was then amplified and analyzed by using the 5′-nuclease assay in a 7900 Real Time PCR System (Applied Biosystems, Foster city, CA) using primer-probe pairs reaction buffer and Immolase DNA polymerase (Bioline, Taunton, Mass.). […] Absolute quantification of an mRNA target sequence within an unknown sample was determined by reference to a standard curve. […]

RSV strain A2 = assay: RSV titer in apical washings of infected HAE (plaque assay on HEp-2 cells); type: cell-based, Respiratory Syncytial Virus
Text: FIG. 6. […] HAE was either treated or untreated with PAF in concurrence with RSV N DsiRNA. Six hours later the cells were infected with RSV at an MOI of 1. Forty eight hours later, the cell washings from the apical surface was collected and assayed for viral titer (a). The cells were lysed and the proteins visualized after immunoprecipitation with anti-RSV antibodies (b) and the bands quantified by densitometry (c). Data are mean±SD from the results three different experiments, each using a different donor. ***p<0.001 (Student's t-test).
For infections, RSV aliquots were resuspended in cold DMEM or DMEM/F12. RSV strain A2 (wt RSV) was kindly provided by Barney Graham (NIH, Bethesda, Md.), and working stocks of RSV were prepared in HEp-2 cells (ATCC).
RSV infection of HAE for both for immunoblot and viral titer was done at an MOI of 1. The virus was thawed at 37° C. and diluted in MEM (0% FCS) to a volume of 70 μl (1MOI)/well. The cells in Millicell filters were rinsed with the same media once and the virus applied to the apical surface. The plate was incubated at 37° C. for a period of 2 hours. […]
HEp-2 cells were seeded onto 12-well plate at a sufficient density so that it reached 90-95% confluence the next day. […] The cells were incubated for an additional 24 hours at 37° C. after which the plaques were counted under a light box. […]

## platelet activating factor [PAF]
Human CFTR mRNA
  silencing of CFTR mRNA levels: approximately 30%
RSV strain A2; PAF with RSV N DsiRNA-Transductin, RSV MOI 1 six hours later, 48 hours after infection
  reduction of viral titers from apical rinses: more than 100 fold
RSV strain A2; PAFR activation alone (no RSV N DsiRNA effect)
  effect on viral titers: did not reduce viral titers
